Reference: patent publication US20250154144A1 (CHILDREN'S HOSPITAL MEDICAL CENTER, priority 2021, published 2025)
Numbering of substitutions follows the chain as printed. Like-named read-outs stand apart in the source and are kept apart here.

Assays:
[1] = target: T1, FLT3 K663Q (Homo sapiens, UniProt P36888, K663Q); assay: DiscoverX KINOMEscan competition binding, FLT3 K663Q
T1 construct: purchased DiscoverX (KINOMEscan)
T1 sequence (P36888 27-993 K663Q): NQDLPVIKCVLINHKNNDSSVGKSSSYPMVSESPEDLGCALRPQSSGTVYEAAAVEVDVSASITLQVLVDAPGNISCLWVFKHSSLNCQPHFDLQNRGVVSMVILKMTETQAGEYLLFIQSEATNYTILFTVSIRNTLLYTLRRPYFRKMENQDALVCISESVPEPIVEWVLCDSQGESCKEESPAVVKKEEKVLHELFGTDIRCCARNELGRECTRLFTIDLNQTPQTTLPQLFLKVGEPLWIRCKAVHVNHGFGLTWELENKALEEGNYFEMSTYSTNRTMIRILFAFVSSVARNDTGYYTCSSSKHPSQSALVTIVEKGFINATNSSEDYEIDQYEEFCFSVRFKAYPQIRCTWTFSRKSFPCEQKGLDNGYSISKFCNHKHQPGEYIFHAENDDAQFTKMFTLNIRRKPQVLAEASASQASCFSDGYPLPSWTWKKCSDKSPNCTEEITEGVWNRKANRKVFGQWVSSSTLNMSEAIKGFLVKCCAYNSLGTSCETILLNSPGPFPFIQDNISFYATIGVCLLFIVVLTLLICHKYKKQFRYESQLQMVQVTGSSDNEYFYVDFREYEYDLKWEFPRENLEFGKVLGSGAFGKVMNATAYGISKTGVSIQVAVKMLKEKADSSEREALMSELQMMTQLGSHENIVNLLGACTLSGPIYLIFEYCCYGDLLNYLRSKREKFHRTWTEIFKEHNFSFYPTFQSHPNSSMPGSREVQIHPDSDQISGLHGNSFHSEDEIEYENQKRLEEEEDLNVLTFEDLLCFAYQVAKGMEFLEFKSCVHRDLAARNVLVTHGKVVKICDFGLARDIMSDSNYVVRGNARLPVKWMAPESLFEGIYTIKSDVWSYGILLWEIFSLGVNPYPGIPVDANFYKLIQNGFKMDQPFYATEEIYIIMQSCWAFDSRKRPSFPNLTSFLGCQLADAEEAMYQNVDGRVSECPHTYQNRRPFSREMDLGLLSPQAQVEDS

[2] = target: T2, FLT3 D835Y (Homo sapiens, UniProt P36888, D835Y); assay: DiscoverX KINOMEscan competition binding, FLT3 D835Y
T2 construct: purchased DiscoverX (KINOMEscan)
T2 sequence (P36888 27-993 D835Y): T1 sequence (P36888 27-993 K663Q) with Q637K, D809Y

[3] = test system: THP1 cells; assay: Combination drug screening, Cell Titer Glo, 10 × 10 matrix, THP1 cells; type: cell-based; conditions: THP1 cells; for Excess HSA Score: 10 × 10
[4] = test system: MOLM14(D835Y) cells; type: cell-based; conditions: MOLM14(D835Y) cells; for Excess HSA Score: 10 × 10
[5] = combination with (+)-BAY-1251152
[6] = combination with Eprenetapopt/APR-246
[7] = combination with Venetoclax (ABT-199)

Kd [1]: 13 nM
Kd [2]: 1.1 nM
Compound: F[C@H]1CCNC[C@@H]1Nc1cncc(-c2cnc3cc(OC4CC4)ccn23)n1 [Compound 12, 6-(7-cyclopropoxyimidazo[1,2-a]pyridin-3-yl)-N-((3S,4S)-4-fluoropiperidin-3-yl)pyrazin-2-amine]
Excess HSA Score [3, 5]: −730.8
Excess HSA Score ([3]; combination with AMG-232): −0.2304
Excess HSA Score ([3]; combination with AZD-5363): −798.3
Excess HSA Score [3, 6]: 477.7
Excess HSA Score ([3]; combination with Ivosidenib): −53.98
Excess HSA Score ([3]; combination with Lenalidomide): −72.51
Excess HSA Score ([3]; combination with Palbociclib): 575.5
Excess HSA Score ([3]; combination with Prednisolone): −176.7
Excess HSA Score ([3]; combination with SNDX-5613): 75.74
Excess HSA Score ([3]; combination with TNO-155): −498.7
Excess HSA Score ([3]; combination with Trametinib): 300.014
Excess HSA Score ([3]; combination with Ulixertinib): −95.31
Excess HSA Score [3, 7]: −1564
Comments ([3]; combination with AMG-232): Additive
Comments ([3]; combination with SNDX-5613): Antagonistic
Comments [3, 7]: Synergistic
Excess HSA Score [4, 5]: −346.5
Excess HSA Score ([4]; combination with AMG-232): −464.9
Excess HSA Score ([4]; combination with AZD-5363): −869.6
Excess HSA Score [4, 6]: 381.9
Excess HSA Score ([4]; combination with Ivosidenib): −10.93
Excess HSA Score ([4]; combination with Lenalidomide): 176.4
Excess HSA Score ([4]; combination with Palbociclib): −72.57
Excess HSA Score ([4]; combination with Prednisolone): 908.8
Excess HSA Score ([4]; combination with SNDX-5613): −187.4
Excess HSA Score ([4]; combination with TNO-155): −906.9
Excess HSA Score ([4]; combination with Trametinib): −87.67
Excess HSA Score ([4]; combination with Ulixertinib): 256.8
Excess HSA Score [4, 7]: −1232.2388
Comments ([4]; combination with Lenalidomide): Antagonistic
Comments [4, 7]: Synergistic
